Experimental findings from patent US20240158446A1, “CYCLIC COMPOUND HAVING SELECTIVE INHIBITORY ACTION ON KRAS OVER HRAS AND NRAS” (CHUGAI SEIYAKU KABUSHIKI KAISHA, priority 2021, published 2024) are described below.

Test [1] deals with GDP-bound KRAS wild-type protein (Homo sapiens, UniProt P01116). As to the kind of experiment: Binding to KRAS by surface plasmon resonance (SPR), Single Cycle Kinetics. The conditions noted are these: SPR, Single Cycle Kinetics. (In general: SPR reads the build-up and loss of mass on a sensor chip optically.)
GDP-bound KRAS wild-type protein, sequence (P01116 whole entry): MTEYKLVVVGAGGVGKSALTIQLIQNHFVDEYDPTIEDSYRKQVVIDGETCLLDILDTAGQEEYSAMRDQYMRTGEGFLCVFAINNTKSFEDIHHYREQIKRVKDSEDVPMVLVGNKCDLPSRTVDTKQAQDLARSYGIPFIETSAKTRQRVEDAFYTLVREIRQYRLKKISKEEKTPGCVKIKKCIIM
Test [2] deals with GDP-bound NRAS wild-type protein (Homo sapiens, UniProt P01111). The test is described as follows: Binding to NRAS by surface plasmon resonance (SPR), Single Cycle Kinetics. To be noted: SPR; for NRAS/KRAS (ratio of KD value for NRAS to KD value for KRAS): GDP-bound NRAS wild-type protein vs GDP-bound KRAS wild-type protein.
GDP-bound NRAS wild-type protein, sequence (P01111 whole entry): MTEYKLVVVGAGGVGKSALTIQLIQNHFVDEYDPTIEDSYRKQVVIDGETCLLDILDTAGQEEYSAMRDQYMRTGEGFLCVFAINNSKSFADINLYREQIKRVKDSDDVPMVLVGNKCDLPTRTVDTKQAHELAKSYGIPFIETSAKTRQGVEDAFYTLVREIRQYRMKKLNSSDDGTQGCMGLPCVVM
Test [3] addresses GDP-bound HRAS wild-type protein (Homo sapiens, UniProt P01112). The test is described as follows: Binding to HRAS by surface plasmon resonance (SPR), Single Cycle Kinetics. To be noted: SPR; for HRAS/KRAS (ratio of KD value for HRAS to KD value for KRAS): GDP-bound HRAS wild-type protein vs GDP-bound KRAS wild-type protein.
The test system of test [4] is human lung cancer strain NCI-H441.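 Further: cell proliferation inhibition after four days measured by CellTiter-Glo.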
Setting [5] is: GDP-bound KRAS wild-type protein, read-out: KRAS KD.
Where [6] appears, read: 1:1 binding model, GDP-bound KRAS wild-type protein, read-out: KRAS KD.
[7] abbreviates: 1:1 binding model, read-out: KD value with respect to GDP-bound KRAS wild-type protein.
[8] abbreviates: read-out: NCI-H441 cell proliferation inhibitory activity, 50% proliferation inhibitory concentration (IC50 value), NCI-H441, four days, CellTiter-Glo.

Like-named read-outs stand apart in the source and are kept apart here.

GDP-bound HRAS wild-type protein, sequence (P01112 whole entry): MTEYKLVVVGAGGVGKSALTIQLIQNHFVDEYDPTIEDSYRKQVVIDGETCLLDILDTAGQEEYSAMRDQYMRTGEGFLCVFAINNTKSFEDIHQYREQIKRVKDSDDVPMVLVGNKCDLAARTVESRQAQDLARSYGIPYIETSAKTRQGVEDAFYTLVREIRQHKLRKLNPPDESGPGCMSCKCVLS

Broadly, the Kd is a measure of binding affinity in units of concentration. `CC[C@H](C)[C@@H]1NC(=O)[C@H](CC)N(C)C(=O)C[C@@H](C(=O)N(C)C)N(C)C(=O)[C@H](C2CCCC2)N(C)C(=O)C2(CCC2)NC(=O)[C@@H]2CSCCN2C(=O)[C@H](CCc2cc(F)c(C(F)(F)F)c(F)c2)NC(=O)CN(C)C(=O)[C@H](Cc2ccc(C(F)(F)F)cc2)N2CC/C=C\C[C@@H](C2=O)N(C)C(=O)CN(C)C1=O` [PP1137, (2S,8S,15R,21S,24S,28S,31S,37S,39Z)-21-cyclopentyl-8-[2-[3,5-difluoro-4-(trifluoromethyl)phenyl]ethyl]-28-ethyl-N,N,4,20,23,27,33,36-octamethyl-31-[(1S)-1-methylpropyl]-3,6,9,16,19,22,26,29,32,35,43-undecaoxo-2-[[4-(trifluoromethyl)phenyl]methyl]spiro[13-thia-1,4,7,10,17,20,23,27,30,33,36-undecazatricyclo[35.5.1.0^10,1^5]tritetracont-39-ene-18,1′-cyclobutane]-24-carboxamide]: the Kd in test [1] (setting [5]) was 0.11 nM. Moreover, the “NRAS/KRAS (ratio of KD value for NRAS to KD value for KRAS)” value in test [2] is “AA (a compound having 20 or more is denoted as AA)”. For the same compound, the “HRAS/KRAS (ratio of KD value for HRAS to KD value for KRAS)” value in test [3] is “A (a compound having 10 or more and less than 20 is denoted as A)”. This compound had an IC50 in test [4] of 142 nM.
Consider `CCO[C@@H]1C[C@H]2C(=O)NC3(CC(C)(C)C3)C(=O)N(C)[C@@H](C3CCCC3)C(=O)N(C)[C@H](C(=O)N(CC)CC)CC(=O)N(C)[C@@H](CC)C(=O)N[C@@H]([C@@H](C)CC)C(=O)N(C)CC(=O)N(C)[C@H]3C/C=C\CCN(C3=O)[C@@H](Cc3ccc(C(F)(F)F)cc3)C(=O)N(C)CC(=O)N[C@@H](CCc3cc(F)c(C(F)(F)F)c(F)c3)C(=O)N2C1` [PP1580], for which the Kd in test [1] (setting [6]) is 0.17 nM. Also, the “NRAS/KRAS (ratio of KD value for NRAS to KD value for KRAS)” value in test [2] (KD ratio class) was “A (a compound having 10 or more and less than 20 is denoted as A)”. Also, in test [3] (KD ratio class), the “HRAS/KRAS (ratio of KD value for HRAS to KD value for KRAS)” value was “A (a compound having 10 or more and less than 20 is denoted as A)”. In test [4], this compound showed an IC50 of 9.7 nM.
As for `CC[C@H](C)[C@@H]1NC(=O)[C@H](CC)N(C)C(=O)C[C@@H](C(=O)N(C)C)N(C)C(=O)[C@H](C2CCCC2)N(C)C(=O)C2(CCC2)NC(=O)[C@@H]2CCCCN2C(=O)[C@H](CCc2cc(F)c(C(F)(F)F)c(F)c2)NC(=O)CN(C)C(=O)[C@H](Cc2ccc(C(F)(F)F)cc2)N2CC/C=C\C[C@@H](C2=O)N(C)C(=O)CN(C)C1=O` [PP1136, (2S,8S,15S,21S,24S,28S,31S,37S,39Z)-21-cyclopentyl-8-[2-[3,5-difluoro-4-(trifluoromethyl)phenyl]ethyl]-28-ethyl-N,N,4,20,23,27,33,36-octamethyl-31-[(1S)-1-methylpropyl]-3,6,9,16,19,22,26,29,32,35,43-undecaoxo-2-[[4-(trifluoromethyl)phenyl]methyl]spiro[1,4,7,10,17,20,23,27,30,33,36-undecazatricyclo[35.5.1.0^10,1^5]tritetracont-39-ene-18,1′-cyclobutane]-24-carboxamide], the dissociation constant (Kd) in test [1] (setting [5]) worked out at 0.14 nM. Moreover, the “NRAS/KRAS (ratio of KD value for NRAS to KD value for KRAS)” value in test [2] is “A (a compound having 10 or more and less than 20 is denoted as A)”. Also, in test [3], the “HRAS/KRAS (ratio of KD value for HRAS to KD value for KRAS)” value is “A (a compound having 10 or more and less than 20 is denoted as A)”. This compound also showed an IC50 in test [4] of 193 nM.
As for `CCC(CC)[C@H]1C(=O)N(C)[C@H](C(=O)N(C)C)CC(=O)N(C)[C@@H](COC)C(=O)N[C@@H]([C@@H](C)CC)C(=O)N(C)CC(=O)N(C)[C@H]2C/C=C\CCN(C2=O)[C@@H](CC2CCC(F)(F)CC2)C(=O)N(C)CC(=O)N[C@@H](CCc2ccc(C(F)(F)F)c(OC)c2)C(=O)N2C[C@@H](C)C[C@H]2C(=O)NC2(CC(C)(C)C2)C(=O)N1C` [PP2442], in test [1] (setting [5]), the Kd was determined as 0.97 nM. In addition, the “NRAS/KRAS (ratio of KD value for NRAS to KD value for KRAS)” value in test [2] is “A (a compound having 10 or more and less than 20 is denoted as A)”. Besides, the “HRAS/KRAS (ratio of KD value for HRAS to KD value for KRAS)” value in test [3] is “A (a compound having 10 or more and less than 20 is denoted as A)”. This compound had an IC50 in test [4] of 79.7 nM.
Turning to `CCC[C@H]1C(=O)N[C@@H]([C@@H](C)CC)C(=O)N2CCC[C@H]2C(=O)N(C)[C@H]2C/C=C\CCN(C2=O)[C@@H](Cc2ccc(C)cc2)C(=O)N(C)CC(=O)N[C@@H](CCc2ccc(C(F)(F)F)c(OC)c2)C(=O)N2C[C@H](OCC)C[C@H]2C(=O)N(C)C2(CCC2)C(=O)N(C)[C@@H](C2CCCC2)C(=O)N(C)[C@H](C(=O)N2CCCCC2)CC(=O)N1C` [PP3100, (1S,4S,10S,13S,17S,20S,26S,28R,32S,38S,42Z)-20-cyclopentyl-28-ethoxy-32-[2-[3-methoxy-4-(trifluoromethyl)phenyl]ethyl]-2,14,18,21,24,36-hexamethyl-10-[(1S)-1-methylpropyl]-17-(piperidine-1-carbonyl)-13-propyl-38-(p-tolylmethyl)spiro[2,8,11,14,18,21,24,30,33,36,39-undecazatetracyclo[37.5.1.0^4,8.0^26,30]pentatetracont-42-ene-23,1′-cyclobutane]-3,9,12,15,19,22,25,31,34,37,45-undecone], in test [1] (setting [7]), the Kd came to 0.29 nM. Moreover, the Kd in test [1] (setting [5]) was found to be 0.29 nM. Moreover, in test [2], the “NRAS/KRAS (ratio of KD value for NRAS to KD value for KRAS)” value was “A (a compound having 10 or more and less than 20 is denoted as A)”; the “ratio of the KD value with respect to GDP-bound NRAS wild-type protein to the KD value with respect to KRAS” value was “A (a compound having 10 or more and less than 20 is denoted as A)”. Besides, in test [3], the “HRAS/KRAS (ratio of KD value for HRAS to KD value for KRAS)” value was “B (a compound having 3 or more and less than 10 is denoted as B)”; the “ratio of the KD value with respect to GDP-bound HRAS wild-type protein to the KD value with respect to KRAS” value was “B (a compound having 3 or more and less than 10 is denoted as B)”. In addition, the IC50 in test [4] (setting [8]) amounted to 15 nM.
Consider `CCO[C@@H]1C[C@H]2C(=O)NC3(CCC3)C(=O)N(C)[C@@H](C3CCCC3)C(=O)N(C)[C@H](C(=O)N3CCOCC3)CC(=O)N(C)[C@@H](Cc3cccc(C#N)c3)C(=O)N[C@@H]([C@@H](C)CC)C(=O)N(C)CC(=O)N(C)[C@H]3CCCCCN(C3=O)[C@@H](Cc3ccc(F)cc3)C(=O)N(C)CC(=O)N[C@@H](CCc3cc(F)c(C(F)(F)F)c(F)c3)C(=O)N2C1` [PP1186], for which, in test [1] (setting [5]), the Kd worked out at 0.094 nM. The “NRAS/KRAS (ratio of KD value for NRAS to KD value for KRAS)” value in test [2] is “B (a compound having 3 or more and less than 10 is denoted as B)”. In test [3], the “HRAS/KRAS (ratio of KD value for HRAS to KD value for KRAS)” value was “B (a compound having 3 or more and less than 10 is denoted as B)”. The IC50 in test [4] turned out to be 54.4 nM.
For `CCC[C@H]1C(=O)N[C@@H]([C@@H](C)CC)C(=O)N(C)CC(=O)N(C)[C@H]2C/C=C\CCN(C2=O)[C@@H](Cc2ccc(C(F)(F)F)cc2)C(=O)N(C)CC(=O)N[C@@H](CCc2cc(F)c(C(F)(F)F)c(F)c2)C(=O)N2C[C@H](OCC)C[C@H]2C(=O)N(C)C2(CCC2)C(=O)N(C)[C@@H](C2CCCC2)C(=O)N(C)[C@H](C(=O)N2CCCC2)CC(=O)N1C` [PP3120, (2S,8S,12R,14S,20S,23S,27S,30S,36S,38Z)-20-cyclopentyl-8-[2-[3,5-difluoro-4-(trifluoromethyl)phenyl]ethyl]-12-ethoxy-4,16,19,22,26,32,35-heptamethyl-30-[(1S)-1-methylpropyl]-27-propyl-23-(pyrrolidine-1-carbonyl)-2-[[4-(trifluoromethyl)phenyl]methyl]spiro[1,4,7,10,16,19,22,26,29,32,35-undecazatricyclo[34.5.1.0^10,14]dotetracont-38-ene-17,1′-cyclobutane]-3,6,9,15,18,21,25,28,31,34,42-undecone], the Kd in test [1] (setting [7]) worked out at 0.052 nM. Besides, the Kd in test [1] (setting [5]) is 0.052 nM. Also, in test [2], the “NRAS/KRAS (ratio of KD value for NRAS to KD value for KRAS)” value was “AA (a compound having 20 or more is denoted as AA)” and the “ratio of the KD value with respect to GDP-bound NRAS wild-type protein to the KD value with respect to KRAS” value is reported as “AA (a compound having 20 or more is denoted as AA)”. Moreover, in test [3], the “HRAS/KRAS (ratio of KD value for HRAS to KD value for KRAS)” value is “A (a compound having 10 or more and less than 20 is denoted as A)”; the “ratio of the KD value with respect to GDP-bound HRAS wild-type protein to the KD value with respect to KRAS” value was “A (a compound having 10 or more and less than 20 is denoted as A)”. The IC50 in test [4] (setting [8]) came out at 1.9 nM.
Regarding `CCO[C@@H]1C[C@H]2C(=O)NC3(CCC3)C(=O)N(C)[C@@H](C3CCCC3)C(=O)N(C)[C@H](C(=O)N(C)C)CC(=O)N(C)[C@@H](CC3CC3)C(=O)N[C@@H]([C@@H](C)CC)C(=O)N(C)CC(=O)N(C)[C@H]3C/C=C\CCN(C3=O)[C@@H](Cc3ccc(C(F)(F)F)cc3)C(=O)N(C)CC(=O)N[C@@H](CCc3ccc(Cl)c(Cl)c3)C(=O)N2C1` [PP1253, (2S,8S,12R,14S,20S,23S,27S,30S,36S,38Z)-20-cyclopentyl-27-(cyclopropylmethyl)-8-[2-(3,4-dichlorophenyl)ethyl]-12-ethoxy-N,N,4,19,22,26,32,35-octamethyl-30-[(1S)-1-methylpropyl]-3,6,9,15,18,21,25,28,31,34,42-undecaoxo-2-[[4-(trifluoromethyl)phenyl]methyl]spiro[1,4,7,10,16,19,22,26,29,32,35-undecazatricyclo[34.5.1.0^10,14]dotetracont-38-ene-17,1′-cyclobutane]-23-carboxamide], in test [1] (setting [6]), the Kd was 0.2 nM. For the same compound, the “NRAS/KRAS (ratio of KD value for NRAS to KD value for KRAS)” value in test [2] (KD ratio class) is “A (a compound having 10 or more and less than 20 is denoted as A)”. Besides, in test [3] (KD ratio class), the “HRAS/KRAS (ratio of KD value for HRAS to KD value for KRAS)” value is “A (a compound having 10 or more and less than 20 is denoted as A)”. Also, the IC50 in test [4] was determined as 22.2 nM.
